Activity calls are given as the source filed them. No cut-off for these calls is given here.
Columns and labels:
[1] = biological target: Amyloid-beta precursor protein (Homo sapiens) (UniProt P05067); assay: Inhibition of amyloid beta (1 to 42) (unknown origin) aggregation at 5 uM by Thioflavin-T fluorescence assay; settings: TDE = time-dependent effect
[2] = biological target: Amyloid-beta precursor protein (Homo sapiens) (UniProt P05067); assay: Inhibition of amyloid beta (1 to 42) (unknown origin)-mediated toxicity in human SH-SY5Y cells at 500 uM preincubated with amyloid beta (1 to 42) for 30 mins followed by addition to cells measured after 24 hrs by MTT assay; format: cell-based
[3] = biological target: Amyloid-beta precursor protein (Homo sapiens) (UniProt P05067); assay: Inhibition of HFIP pretreated amyloid beta (1 to 42) (unknown origin) aggregation assessed as time for nucleation phase of aggregation at 5 uM by Thioflavin-T fluorescence assay (reference value: 4 to 5 hrs)
[4] = biological target: Amyloid-beta precursor protein (Homo sapiens) (UniProt P05067); assay: Binding affinity to amyloid beta (1 to 42) (unknown origin) assessed as retention time for amyloid beta (1 to 42)-compound adduct formation at 250 uM after 1 hr by LC/Q Tof-MS analysis
[5] = Drug level in pH 7.4 PBS at 50 uM measured after 0 hrs by HPLC analysis; format: physicochemical; settings: buffer, pH 7.4, 0 h
[6] = Drug level in pH 7.4 PBS at 50 uM measured after 48 hrs by HPLC analysis; format: physicochemical; settings: buffer, pH 7.4, 48 h
[7] = Drug level in pH 7.4 PBS at 50 uM measured after 1 hr by HPLC analysis; format: physicochemical; settings: buffer, pH 7.4, 1 h
[8] = Drug level in pH 7.4 PBS at 50 uM measured after 8 hrs by HPLC analysis; format: physicochemical; settings: buffer, pH 7.4, 8 h
[9] = Drug level in pH 7.4 PBS treated with apomorphine at 50 uM up to 8 hrs by UV-Visible spectroscopic analysis; format: physicochemical; settings: buffer, pH 7.4, 8 h
[10] = Drug level in pH 7.4 PBS at 50 uM measured after 2 hrs by HPLC analysis; format: physicochemical; settings: buffer, pH 7.4, 2 h
[11] = Drug level in pH 7.4 PBS at 50 uM measured after 4 hrs by HPLC analysis; format: physicochemical; settings: buffer, pH 7.4, 4 h
[12] = Drug level in pH 7.4 PBS treated with apomorphine at 8 uM measured immediately by HPLC analysis; format: physicochemical; settings: buffer, pH 7.4, 8 µM
[13] = Drug level in pH 7.4 PBS treated with apomorphine at 50 uM measured after 8 hrs by HPLC analysis; format: physicochemical; settings: buffer, pH 7.4, 8 h
[14] = biological target: Amyloid-beta precursor protein (Homo sapiens) (UniProt P05067); assay: Inhibition of amyloid beta (1 to 42) (unknown origin) aggregation at 5 uM after 48 hrs by Thioflavin-T fluorescence assay relative to control
[15] = Drug level in pH 7.4 PBS at 50 uM measured after 24 hrs by HPLC analysis; format: physicochemical; settings: buffer, pH 7.4, 24 h
[16] = Drug level in pH 7.4 PBS treated with apomorphine at 8 to 50 uM measured up to 24 hrs by HPLC analysis; format: physicochemical; settings: buffer, pH 7.4, 24 h
[17] = biological target: Amyloid-beta precursor protein (Homo sapiens) (UniProt P05067); assay: Binding affinity to amyloid beta (1 to 42) (unknown origin) assessed as retention time for amyloid beta (1 to 42) (Lys28)-compound adduct at 250 uM after 1 hr by LC/Q Tof-MS analysis
[18] = biological target: Amyloid-beta precursor protein (Homo sapiens) (UniProt P05067); assay: Inhibition of amyloid beta (1 to 42) (unknown origin) aggregation at 0.25 to 50 uM after 48 hrs by uranyl acetate staining based transmission electron microscopic method
[19] = biological target: Amyloid-beta precursor protein (Homo sapiens) (UniProt P05067); assay: Inhibition of amyloid beta (1 to 42) (unknown origin) aggregation at 5 uM in presence of reductant TCEP by Thioflavin-T fluorescence assay
[20] = Drug metabolism in pH 7.4 PBS assessed as auto-oxidization by measuring 6-methyl-5,6-dihydro-4H-dibenzo[de,g]quinoline-10,11-dione level at 50 uM measured after 8 hrs by HPLC analysis; format: physicochemical; settings: buffer, pH 7.4, 8 h
[21] = biological target: Amyloid-beta precursor protein (Homo sapiens) (UniProt P05067); assay: Binding affinity to amyloid beta (9 to 35) E22P M35ox mutant (unknown origin) oxidized at M35 residue assessed as E22P M35ox(Lys16/Lys28)-compound adduct formation at 250 uM after 1 hr by LC/Q Tof-MS analysis
[22] = biological target: Amyloid-beta precursor protein (Homo sapiens) (UniProt P05067); assay: Inhibition of amyloid beta (1 to 42) (unknown origin) aggregation by Thioflavin-T fluorescence assay
[23] = biological target: Amyloid-beta precursor protein (Homo sapiens) (UniProt P05067); assay: Binding affinity to amyloid beta (1 to 42) (unknown origin) assessed as retention time for amyloid beta (1 to 42) - 6-methyl-5,6-dihydro-4H-dibenzo[de,g]quinoline-10,11-dione adduct at 250 uM after 1 hr by LC/Q Tof-MS analysis
[24] = Drug metabolism in pH 7.4 PBS assessed as auto-oxidization by measuring 6-methyl-5,6-dihydro-4H-dibenzo[de,g]quinoline-10,11-dione level at 50 uM measured after 1 hr by HPLC analysis; format: physicochemical; settings: buffer, pH 7.4, 1 h
[25] = Drug metabolism in pH 7.4 PBS assessed as auto-oxidization by measuring 6-methyl-5,6-dihydro-4H-dibenzo[de,g]quinoline-10,11-dione level at 50 uM measured after 24 hrs by HPLC analysis; format: physicochemical; settings: buffer, pH 7.4, 24 h
[26] = Drug metabolism in pH 7.4 PBS assessed as auto-oxidization by measuring 6-methyl-5,6-dihydro-4H-dibenzo[de,g]quinoline-10,11-dione level at 50 uM measured after 2 hrs by HPLC analysis; format: physicochemical; settings: buffer, pH 7.4, 2 h
[27] = Drug metabolism in pH 7.4 PBS assessed as auto-oxidization by measuring 6-methyl-5,6-dihydro-4H-dibenzo[de,g]quinoline-10,11-dione level at 50 uM measured after 4 hrs by HPLC analysis; format: physicochemical; settings: buffer, pH 7.4, 4 h
[28] = Drug metabolism in pH 7.4 PBS assessed as auto-oxidization by measuring 6-methyl-5,6-dihydro-4H-dibenzo[de,g]quinoline-10,11-dione level at 50 uM measured after 0 hrs by HPLC analysis; format: physicochemical; settings: buffer, pH 7.4, 0 h
[29] = biological target: Amyloid-beta precursor protein (Homo sapiens) (UniProt P05067); assay: Binding affinity to amyloid beta (1 to 42) (unknown origin) assessed as retention time for amyloid beta (1 to 42) (Lys16)-compound adduct at 250 uM after 1 hr by LC/Q Tof-MS analysis

Chain of Amyloid-beta precursor protein (Homo sapiens) (P05067 whole entry): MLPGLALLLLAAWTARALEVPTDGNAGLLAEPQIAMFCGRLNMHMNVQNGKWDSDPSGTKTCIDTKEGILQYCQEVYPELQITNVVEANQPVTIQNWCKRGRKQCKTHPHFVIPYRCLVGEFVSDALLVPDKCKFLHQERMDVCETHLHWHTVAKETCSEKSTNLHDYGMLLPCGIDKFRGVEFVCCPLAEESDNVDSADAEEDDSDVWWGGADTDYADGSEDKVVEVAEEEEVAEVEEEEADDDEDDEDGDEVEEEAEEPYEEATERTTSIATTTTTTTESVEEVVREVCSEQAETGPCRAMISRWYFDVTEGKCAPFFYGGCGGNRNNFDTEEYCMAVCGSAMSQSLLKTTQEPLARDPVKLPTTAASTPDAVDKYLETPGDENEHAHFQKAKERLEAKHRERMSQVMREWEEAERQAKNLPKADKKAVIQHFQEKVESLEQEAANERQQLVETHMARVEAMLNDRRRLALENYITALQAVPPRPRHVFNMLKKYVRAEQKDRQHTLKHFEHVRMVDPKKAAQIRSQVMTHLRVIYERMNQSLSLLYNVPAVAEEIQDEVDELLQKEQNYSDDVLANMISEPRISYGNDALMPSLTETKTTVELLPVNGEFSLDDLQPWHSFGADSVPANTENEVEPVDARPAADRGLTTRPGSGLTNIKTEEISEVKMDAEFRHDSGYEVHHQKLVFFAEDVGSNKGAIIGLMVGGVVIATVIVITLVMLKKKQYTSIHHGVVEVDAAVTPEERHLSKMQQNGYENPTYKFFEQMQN

Compound: CN1CCc2cccc3c4c(cc1c23)C=CC(=O)C4=O
- inhibition [1]: Tde
- inhibition [2]: inactive
- TIME [3]: 6 to 7 h
- Activity [4]: inactive
- Drug uptake [5]: 31 µM
- Drug uptake [6]: 15 µM
- Drug uptake [7]: 24 µM
- Drug uptake [8]: 24 µM
- Drug metabolism [9]: Metabolite_Detected
- Drug uptake [10]: 22 µM
- Drug uptake [11]: 24 µM
- Drug metabolism [12]: Metabolite_Detected
- Drug metabolism [13]: Metabolite_Detected
- inhibition [14]: > 50%
- Drug uptake [15]: 19 µM

Compound: CNCCc1cccc2c3c(ccc12)C=CC(=O)C3=O
- Drug metabolism [16]: Metabolite_Detected

Compound: CN1CCc2cccc3c2C1=CC(=O)C3=O
- Drug metabolism [16]: Metabolite_Detected

Compound: CN1CCc2cccc3c2[C@H]1Cc1ccc(O)c(O)c1-3 [APOMORPHINE]
- inhibition [1]: Tde
- inhibition [2]: inactive
- Retention time [17]: 6.9 min
- TIME [3]: 6 to 7 h
- inhibition [18]: Active
- inhibition [19]: inactive
- Drug metabolism [20]: 50 µM
- Activity [21]: Active
- inhibition [22]: Dose-dependent effect
- Activity [23]: Active
- Drug metabolism [24]: 23 µM
- Drug metabolism [25]: 25 µM
- Drug metabolism [26]: 32 µM
- inhibition [14]: > 50%
- Drug metabolism [27]: 47 µM
- Drug metabolism [28]: 8 µM
- Retention time [29]: 6.4 min
